Data on 14 compounds can be found in patent publication US20140135319A1, “6-SUBSTITUTED IMIDAZOPYRAZINES FOR USE AS MPS-1 AND TKK INHIBITORS IN THE TREATMENT OF HYPERPROLIFERATIVE DISORDERS” (BAYER INTELLECTUAL PROPERTY GMBH, priority 2010, published 2014).

Bounds are passed on as bounds.

The assay concerns the target T1, human kinase Mps-1 (Homo sapiens, UniProt P33981).
T1 construct: N-terminally GST-tagged human full length recombinant Mps-1 kinase; GST (N); purchased Invitrogen, Karslruhe, Germany PV4071
T1 sequence (P33981 1-857): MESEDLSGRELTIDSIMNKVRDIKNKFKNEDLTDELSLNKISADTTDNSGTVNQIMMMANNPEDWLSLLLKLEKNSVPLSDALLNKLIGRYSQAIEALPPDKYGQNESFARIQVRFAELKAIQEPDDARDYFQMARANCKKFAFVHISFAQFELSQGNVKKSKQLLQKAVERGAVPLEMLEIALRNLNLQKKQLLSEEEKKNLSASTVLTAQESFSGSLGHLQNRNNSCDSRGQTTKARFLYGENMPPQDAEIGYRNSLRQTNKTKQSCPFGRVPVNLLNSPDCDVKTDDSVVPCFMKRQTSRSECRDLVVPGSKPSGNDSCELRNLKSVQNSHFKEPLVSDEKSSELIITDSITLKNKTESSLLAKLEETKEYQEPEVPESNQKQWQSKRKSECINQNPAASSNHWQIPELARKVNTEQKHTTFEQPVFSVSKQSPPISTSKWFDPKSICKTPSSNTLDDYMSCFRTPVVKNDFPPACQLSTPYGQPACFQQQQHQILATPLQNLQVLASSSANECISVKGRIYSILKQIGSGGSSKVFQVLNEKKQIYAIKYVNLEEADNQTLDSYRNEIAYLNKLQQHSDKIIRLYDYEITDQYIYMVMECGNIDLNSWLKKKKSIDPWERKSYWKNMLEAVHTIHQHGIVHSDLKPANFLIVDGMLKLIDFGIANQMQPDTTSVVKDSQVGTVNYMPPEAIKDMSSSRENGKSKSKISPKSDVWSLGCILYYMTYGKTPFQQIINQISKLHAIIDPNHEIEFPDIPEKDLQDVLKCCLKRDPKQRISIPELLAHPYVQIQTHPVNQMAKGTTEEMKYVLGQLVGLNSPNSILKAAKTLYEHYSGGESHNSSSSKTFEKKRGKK
The assay can be described thus: Mps-1 kinase assay (TR-FRET). As to conditions: GST-tagged human full length recombinant Mps-1; 10 μM ATP; 1 μM peptide substrate; 60 min at 22° C. It counts as biochemical. A digest of the protocol:
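N-terminally GST-tagged full-length recombinant human Mps-1, about 1 nM final, phosphorylates a biotinylated peptide. Product detected by TR-FRET from Eu-anti-phospho-Ser/Thr antibody to streptavidin-XLent after 1 h at 22° C.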

A word on the IC50: it is the concentration that inhibits the measured activity by half. With `CC(C)CNc1nc(C(=O)NCCN2CCCCC2)cn2c(-c3ccc(C(=O)NC4CC4)cc3)cnc12` [Example 8-2, 3-[4-(cyclopropylcarbamoyl)phenyl]-8-[(2-methylpropyl)amino]-N-[2-(piperidin-1-yl)ethyl] imidazo[1,2-a]pyrazine 6-carboxamide], the IC50 was 11.7 nM. The value for `CC(C)CNc1nc(C(=O)N2CCCCC2)cn2c(-c3ccc(C(=O)NC4CC4)cc3)cnc12` [Example 8-3, N-cyclopropyl-4-{8-[(2-methylpropyl)amino]-6-(piperidin-1-ylcarbonyl)imidazo[1,2-a]pyrazin-3-yl}benzamide] was 20.6 nM. With `Cc1cc(-c2cnc3c(NCCC(F)(F)F)nc(C4=CC[S+]([O-])CC4)cn23)ccc1C(=O)NC1CC1` (centres unmarked) [Example 9-1, N-cyclopropyl-2-methyl-4-{6-(1-oxido-3,6-dihydro-2H-thiopyran-4-yl)-8-[(3,3,3-trifluoropropyl)amino]imidazo[1,2-a]pyrazin-3-yl}benzamide], the IC50 amounted to 16 nM. `Cc1cc(-c2cnc3c(NCCC(F)(F)F)nc(CN)cn23)ccc1C(=O)NC1CC1` [Example 10-1, 4-{6-(aminomethyl)-8-[(3,3,3-trifluoropropyl)amino]imidazo[1,2-a]pyrazin-3-yl}-N-cyclopropyl-2-methylbenzamide]: the IC50 turned out to be 82.9 nM. `Cc1cc(-c2cnc3c(NCCC(F)(F)F)nc(CN4CCCCC4)cn23)ccc1C(=O)NC1CC1` [Example 11-1, N-cyclopropyl-2-methyl-4-{6-(piperidin-1-ylmethyl)-8-[(3,3,3-trifluoropropyl)amino]imidazo[1,2-a]pyrazin-3-yl}benzamide]: the IC50 worked out at 140 nM.

`Cc1cc(-c2cnc3c(NCCC(F)(F)F)nc(CNc4ccccc4)cn23)ccc1C(=O)NC1CC1` [Example 11-2, N-cyclopropyl-2-methyl-4-{6-[(phenylamino)methyl]-8-[(3,3,3-trifluoropropyl)amino]imidazo[1,2-a]pyrazin-3-yl}benzamide]: the IC50 amounted to 1.2 nM. The value for `CC(C)CNc1nc(N2CCCCS2(=O)=O)cn2c(-c3ccc(C(=O)NC4CC4)cc3)cnc12` [Example 12-1, N-cyclopropyl-4-{6-(1,1-dioxido-1,2-thiazinan-2-yl)-8-[(2-methylpropyl)amino]imidazo[1,2-a]pyrazin-3-yl}benzamide] was 6.5 nM; that for `CC(C)CNc1nc(Oc2ccccc2)cn2c(-c3ccc(C(=O)NC4CC4)cc3)cnc12` [Example 13-1] was 1 nM; that for `Cc1cc(-c2cnc3c(NCC(C)(C)O)nc(Oc4ccccc4)cn23)ccc1C(=O)NC1CC1` [Example 13-4, N-cyclopropyl-4-{8-[(2-hydroxy-2-methylpropyl)amino]-6-phenoxy-imidazo[1,2-a]pyrazin-3-yl}-2-methylbenzamide] was 2 nM. For `Cc1cc(-c2cnc3c(NCC(C)(C)O)nc(Oc4cccc(F)c4)cn23)ccc1C(=O)NC1CC1` [Example 13-5, N-cyclopropyl-4-{6-(3-fluorophenoxy)-8-[(2-hydroxy-2-methylpropyl)amino]imidazo[1,2-a]pyrazin-3-yl}-2-methyl benzamide], the IC50 is 1.7 nM. The value for `CC(C)CNc1nc(C(N)=O)cn2c(-c3ccc(C(=O)NC4CC4)cc3)cnc12` [Example 14-1, 3-[4-(cyclopropylcarbamoyl)phenyl]-8-[(2-methylpropyl)amino]imidazo[1,2-a]pyrazine-6-carboxamide] was 9.9 nM. In the case of `Cc1cc(-c2cnc3c(NCC(C)(C)O)nc(Sc4ccccc4)cn23)ccc1C(=O)NC1CC1` [Example 15-1, N-cyclopropyl-4-{8-[(2-hydroxy-2-methylpropyl)amino]-6-(phenylsulfanyl)imidazo[1,2-a]pyrazin-3-yl}-2-methylbenzamide] it was < 1 nM. In the case of `Cc1cc(-c2cnc3c(NCCC(F)(F)F)nc(Sc4ccccc4)cn23)ccc1C(=O)NC1CC1` [Example 15-2, N-cyclopropyl-2-methyl-4-{6-(phenylsulfanyl)-8-[(3,3,3-trifluoropropyl)amino]imidazo[1,2-a]pyrazin-3-yl}benzamide], the IC50 was < 1 nM. Consider `Cc1cc(-c2cnc3c(NCCC(F)(F)F)nc(Sc4cccc(F)c4)cn23)ccc1C(=O)NC1CC1` [Example 15-3, N-cyclopropyl-4-{6-[(3-fluorophenyl)sulfanyl]-8-[(3,3,3-trifluoropropyl)amino]imidazo[1,2-a]pyrazin-3-yl}-2-methylbenzamide], for which the IC50 is < 1 nM.
